Results reported in PubChem BioAssay (NCI).
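Five compound concentrations were applied to cells in 96-well plates for 48 hours; endpoints were derived by simple linear interpolation of the resulting dose-response curve. GI50 = concentration required for 50% inhibition of growth. The concentration for full growth arrest is given as TGI.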

What was measured:
Assay in all cases: NCI-60 cell line screen, 48 h
K-562 leukemia = tested on: K-562 leukemia
SN12C renal = tested on: SN12C renal
DU-145 prostate = tested on: DU-145 prostate
RXF 393 renal = tested on: RXF 393 renal
HS 578T breast = tested on: HS 578T breast
OVCAR-5 ovarian = tested on: OVCAR-5 ovarian
SF-268 CNS = tested on: SF-268 CNS
UACC-257 melanoma = tested on: UACC-257 melanoma
SNB-19 CNS = tested on: SNB-19 CNS
KM12 colon = tested on: KM12 colon
RPMI-8226 leukemia = tested on: RPMI-8226 leukemia
U251 CNS = tested on: U251 CNS
MALME-3M melanoma = tested on: MALME-3M melanoma
HCT-116 colon = tested on: HCT-116 colon
SK-MEL-2 melanoma = tested on: SK-MEL-2 melanoma
A498 renal = tested on: A498 renal
OVCAR-3 ovarian = tested on: OVCAR-3 ovarian
CAKI-1 renal = tested on: CAKI-1 renal
LOX IMVI melanoma = tested on: LOX IMVI melanoma
M14 melanoma = tested on: M14 melanoma
EKVX NSCLC = tested on: EKVX NSCLC
HCT-15 colon = tested on: HCT-15 colon
TK-10 renal = tested on: TK-10 renal
HOP-92 NSCLC = tested on: HOP-92 NSCLC
MDA-MB-231 breast = tested on: MDA-MB-231 breast
HT29 colon = tested on: HT29 colon
IGROV1 ovarian = tested on: IGROV1 ovarian
OVCAR-8 ovarian = tested on: OVCAR-8 ovarian

C=C1C(=O)O[C@H]2[C@H]1CC/C(COC(=O)CSCCSCC(=O)OC/C1=C/CC[C@@]3(C)O[C@H]3[C@H]3OC(=O)C(=C)[C@@H]3CC1)=C\CC[C@@]1(C)O[C@@H]21 gave a TGI (K-562 leukemia) of 25700 nM, a GI50 (SN12C renal) of 2190 nM and a TGI (SN12C renal) of 5340 nM. It also gave a GI50 (DU-145 prostate) of 1770 nM, a TGI (DU-145 prostate) of 3370 nM and a GI50 (RXF 393 renal) of 1550 nM. The TGI (RXF 393 renal) was 3030 nM, the GI50 (HS 578T breast) was 4650 nM and the TGI (HS 578T breast) was 38900 nM. For the same compound, the GI50 (OVCAR-5 ovarian) was 2040 nM, the TGI (OVCAR-5 ovarian) was 4580 nM and the GI50 (SF-268 CNS) was 1710 nM. It also gave a TGI (SF-268 CNS) of 4080 nM, a GI50 (UACC-257 melanoma) of 1930 nM and a TGI (UACC-257 melanoma) of 3930 nM. For the same compound, the GI50 (SNB-19 CNS) was 2850 nM, the TGI (SNB-19 CNS) was 9610 nM and the GI50 (KM12 colon) was 2080 nM. The TGI (KM12 colon) was 4060 nM, the GI50 (RPMI-8226 leukemia) was 1320 nM and the TGI (RPMI-8226 leukemia) was 4480 nM. For the same compound, the GI50 (U251 CNS) was 1660 nM, the TGI (U251 CNS) was 3510 nM and the GI50 (MALME-3M melanoma) was 1480 nM. The TGI (MALME-3M melanoma) was 3330 nM, the GI50 (HCT-116 colon) was 1170 nM and the TGI (HCT-116 colon) was 2640 nM. It also gave a GI50 (SK-MEL-2 melanoma) of 2760 nM, a TGI (SK-MEL-2 melanoma) of 6640 nM and a GI50 (A498 renal) of 2750 nM. For the same compound, the TGI (A498 renal) was 10700 nM, the GI50 (OVCAR-3 ovarian) was 1150 nM and the TGI (OVCAR-3 ovarian) was 2440 nM. It also gave a GI50 (CAKI-1 renal) of 1790 nM, a TGI (CAKI-1 renal) of 3310 nM and a GI50 (LOX IMVI melanoma) of 1490 nM. The TGI (LOX IMVI melanoma) was 2920 nM, the GI50 (M14 melanoma) was 1990 nM and the TGI (M14 melanoma) was 4340 nM. The GI50 (EKVX NSCLC) was 1660 nM, the TGI (EKVX NSCLC) was 3700 nM and the GI50 (HCT-15 colon) was 1550 nM. It also gave a TGI (HCT-15 colon) of 3010 nM, a GI50 (TK-10 renal) of 1840 nM and a TGI (TK-10 renal) of 3290 nM. The GI50 (HOP-92 NSCLC) was 1860 nM, the TGI (HOP-92 NSCLC) was 3820 nM and the GI50 (MDA-MB-231 breast) was 1580 nM. The TGI (MDA-MB-231 breast) was 3140 nM, the GI50 (HT29 colon) was 1360 nM and the TGI (HT29 colon) was 2680 nM. It also gave a GI50 (IGROV1 ovarian) of 2350 nM, a TGI (IGROV1 ovarian) of 5600 nM and a GI50 (OVCAR-8 ovarian) of 1970 nM. For the same compound, the TGI (OVCAR-8 ovarian) was 4600 nM.
